“And” between values parts separate entries of the source, which are not always exact repeats. Identical values can stand only once. Like-named read-outs stand apart in the source and are kept apart here.
Experiments:
[1] = tested on: Junin virus (Candid #1 strain); assay type: cell-based
[2] = tested on: Dengue virus Type 2 (New Guinea C strain); experiment: microbe, parasite or virus in culture; assay type: cell-based; conditions: for EC50: Dengue virus, Vero 76, read-out: EC50 (mean 50% effective, virus-inhibitory concentration ± SD)
[3] = tested on: Chikungunya virus (S27 strain); experiment: microbe, parasite or virus in culture; assay type: cell-based; conditions: for EC50: Chikungunya virus, Vero 76, read-out: EC50 (mean 50% effective, virus-inhibitory concentration ± SD)
[4] = tested on: proliferating, uninfected Vero 76 cells
in vitro = conditions: African green monkey

In the case of `O=c1cnn([C@@H]2O[C@H](CO)[C@@H](O)[C@H]2O)c(=O)[nH]1` [6-Azauridine], the “Inhibition of Junin virus (in words)” value [1] is reported as “inhibited”, the “SI (Selectivity Index, CC50/EC50)” value [1] is reported as >151 and the “SI (Selectivity Index, CC50/EC50)” value [2] is reported as >12. For the same molecule, the EC50 [2] was 8.4 ± 10.8 µM, the “Inhibition of chikungunya virus (in words)” value [3] was “inhibited” and the “SI (Selectivity Index, CC50/EC50)” value [3] was >13. For the same molecule, the EC50 [3] was 8 ± 10.4 µM, the “Mean 50% cytotoxic concentration ± SD, ALB-Abs” value ([4]; 4 days, N=3) was 48.0 ± 11.5 µM and 48.0 ± 19.9 µM and the “Mean 50% cytotoxic concentration ± SD, ALB-Fluor” value ([4]; 4 days, N=3) was 69.0 ± 10.5 μM and 94.0 ± 10.4 ^*^, ^φ μM. For the same molecule, the “Mean 50% cytotoxic concentration ± SD, Neutral Red” value ([4]; 4 days, N=3) was 6.2 ± 0.9 µM, the “Mean 50% cytotoxic concentration ± SD, Viral ToxGlo” value ([4]; 4 days, N=3) was 17.0 ± 5.3 µM and the “Mean 50% cytotoxic concentration ± SD, WST-1” value ([4]; 4 days, N=3) was 6.2 ± 1.0 μM and 7.1 ± 1.8 ^b μM. It also gave a CC50 (in vitro; CC50 (toxicity) with ALB-A and ALB-F) of 48 to 92 µM and a CC50 (in vitro; CC50 (toxicity) with NR, VTG, and WST-1) of 6.1 to 17.5 µM.

In the case of `Nc1ncnc2c([C@@H]3N[C@H](CO)[C@@H](O)[C@H]3O)c[nH]c12` [BCX4430], the “Inhibition of dengue virus (in words)” value [2] is reported as “weak dengue-inhibitory activity”, the “SI (Selectivity Index, CC50/EC50)” value [2] is reported as >3 and the EC50 [2] is reported as 37 ± 22 µM. The EC50 [3] was > 100 µM.

For `COc1c(C)c2c(c(O)c1C/C=C(\C)CCC(=O)O)C(=O)OC2` [Mycophenolic acid, mycophenolic acid], the “Inhibition of Junin virus (in words)” value [1] was “inhibited”, the “SI (Selectivity Index, CC50/EC50)” value [1] was >100 and the “SI (Selectivity Index, CC50/EC50)” value [2] was >22. For the same molecule, the EC50 [2] was 4.5 ± 6.6 µM, the “Inhibition of chikungunya virus (in words)” value [3] was “inhibited” and the “SI (Selectivity Index, CC50/EC50)” value [3] was >61. For the same molecule, the EC50 [3] was 1.6 ± 1.7 µM, the “Mean 50% cytotoxic concentration ± SD, ALB-Abs” value ([4]; 4 days, N=3) was 1.4 ± 0.3 µM and 1.2 ± 0.2 µM and the “Mean 50% cytotoxic concentration ± SD, ALB-Fluor” value ([4]; 4 days, N=3) was 1.9 ± 0.1 µM and 2.5 ± 0.5 µM. For the same molecule, the “Mean 50% cytotoxic concentration ± SD, Neutral Red” value ([4]; 4 days, N=3) was 0.8 ± 0.6 µM, the “Mean 50% cytotoxic concentration ± SD, Viral ToxGlo” value ([4]; 4 days, N=3) was 0.7 ± 0.2 µM and the “Mean 50% cytotoxic concentration ± SD, WST-1” value ([4]; 4 days, N=3) was 0.5 ± 0.1 µM. The CC50 (in vitro; CC50, range over the dyes) was 0.8 to 2.5 µM.

With `NC(=O)c1csc([C@@H]2O[C@H](CO)[C@@H](O)[C@H]2O)n1` [Tiazofurin] the “Inhibition of Junin virus (in words)” value [1] was “ineffective”, the “Inhibition of dengue virus (in words)” value [2] was “ineffective” and the EC50 [2] was > 100 µM. The “Inhibition of chikungunya virus (in words)” value [3] was “ineffective” and the EC50 [3] was > 100 µM.

In the case of `Nc1cc2nc[nH]c2c(=O)[nH]1` [3-Deazaguanine], the “Inhibition of Junin virus (in words)” value [1] is reported as “inhibited”, the “SI (Selectivity Index, CC50/EC50)” value [1] is reported as >63 and the “SI (Selectivity Index, CC50/EC50)” value [2] is reported as >22. The EC50 [2] was 4.6 ± 6.3 µM, the “Inhibition of chikungunya virus (in words)” value [3] was “inhibited” and the “SI (Selectivity Index, CC50/EC50)” value [3] was >8. For the same molecule, the EC50 [3] was 13 ± 8.3 µM, the “Mean 50% cytotoxic concentration ± SD, Neutral Red” value ([4]; African green monkey) was 3.0 ± 1.1 µM and the “Mean 50% cytotoxic concentration ± SD, Viral ToxGlo” value ([4]; African green monkey) was 1.5 ± 0.7 µM. It also gave a CC50 (in vitro; CC50 with ALB-F) of 83 to 93 µM and a CC50 (in vitro; CC50 with all other dyes including ALB-A) of 2.4 to 7 µM.

With `C#Cc1c(C(N)=O)ncn1[C@@H]1O[C@H](CO)[C@@H](O)[C@H]1O` [EICAR, 5-ethynyl-1-beta-D-ribofuranosylimidazole-4-carboxamide] the “Inhibition of Junin virus (in words)” value [1] was “inhibited”, the “SI (Selectivity Index, CC50/EC50)” value [1] was >52 and the “SI (Selectivity Index, CC50/EC50)” value [2] was >8. For the same molecule, the EC50 [2] was 13.3 ± 22.1 µM, the “Inhibition of chikungunya virus (in words)” value [3] was “inhibited” and the “SI (Selectivity Index, CC50/EC50)” value [3] was >10. The EC50 [3] was 10.3 ± 13 µM, the “Mean 50% cytotoxic concentration ± SD, ALB-Abs” value ([4]; 4 days, N=3) was 4.9 ± 1.4 µM and 3.9 ± 1.3 µM and the “Mean 50% cytotoxic concentration ± SD, ALB-Fluor” value ([4]; 4 days, N=3) was 9.5 ± 4.2 µM and 8.2 ± 2.2 µM. For the same molecule, the “Mean 50% cytotoxic concentration ± SD, Neutral Red” value ([4]; 4 days, N=3) was 2.9 ± 1.0 µM, the “Mean 50% cytotoxic concentration ± SD, Viral ToxGlo” value ([4]; 4 days, N=3) was 2.7 ± 1.4 µM and the “Mean 50% cytotoxic concentration ± SD, WST-1” value ([4]; 4 days, N=3) was 2.8 ± 1.1 µM and 3.9 ± 1.3 µM. For the same molecule, the CC50 (in vitro; CC50, range over the dyes) was 1.5 to 8.9 µM.

For `NC(=O)c1nc(F)c[nH]c1=O` [Favipiravir], the “Inhibition of Junin virus (in words)” value [1] was “inhibited”, the “SI (Selectivity Index, CC50/EC50)” value [1] was >23 and the EC50 [2] was > 100 µM. For the same molecule, the EC50 [3] was > 100 µM.

For `NC(=O)c1ncn([C@@H]2O[C@H](CO)[C@@H](O)[C@H]2O)n1` [Ribavirin, 1-beta-D-ribofuranosyl-1,2,4-triazole-3-carboxamide], the “Inhibition of Junin virus (in words)” value [1] was “inhibited”, the “SI (Selectivity Index, CC50/EC50)” value [1] was >7 and the EC50 [2] was > 100 µM. The EC50 [3] was > 100 µM.
